Measured values as given in ChEMBL document CHEMBL5154712, “Activators of the Anticipatory Unfolded Protein Response with Enhanced Selectivity for Estrogen Receptor Positive Breast Cancer” (J Med Chem, 2022).
Activity calls are given as the source filed them. The calls are words filed in the database; no cut-off is given here.

Legend:
MDA-MB-231 [1] = assay: Anticancer activity against ERalpha negative human MDA-MB-231 cells assessed as cell growth inhibition incubated for 72 hrs by alamar blue assay; assay type: functional, cell-based; conditions: MDA-MB-231, 72 h
MDA-MB-231 [2] = assay: Anticancer activity against ERalpha negative human MDA-MB-231 cells assessed as cell growth inhibition incubated for 24 hrs by alamar blue assay; assay type: functional, cell-based; conditions: MDA-MB-231, 24 h
[3] = Selectivity ratio of IC50 for human MDA-MB-231 cells to IC50 for human MCF7 cells; assay type: functional
MCF7 [4] = assay: Anticancer activity against human MCF7 cells assessed as cell growth inhibition incubated for 24 hrs by alamar blue assay; assay type: functional, cell-based; conditions: MCF7, 24 h
[5] = Selectivity ratio of IC50 for human HT-29 cells to IC50 for human MCF7 cells; assay type: functional
HCT-116 [6] = assay: Anticancer activity against ERalpha negative human HCT-116 cells assessed as cell growth inhibition incubated for 72 hrs by alamar blue assay; assay type: functional, cell-based; conditions: HCT-116, 72 h
HT-29 [7] = assay: Anticancer activity against ERalpha negative human HT-29 cells assessed as cell growth inhibition incubated for 72 hrs by alamar blue assay; assay type: functional, cell-based; conditions: HT-29, 72 h
HT-29 [8] = assay: Anticancer activity against ERalpha negative human HT-29 cells assessed as cell growth inhibition incubated for 24 hrs by alamar blue assay; assay type: functional, cell-based; conditions: HT-29, 24 h
HCT-116 [9] = assay: Anticancer activity against ERalpha negative human HCT-116 cells assessed as cell growth inhibition incubated for 24 hrs by alamar blue assay; assay type: functional, cell-based; conditions: HCT-116, 24 h
[10] = Stability of the compound in simulated gastric fluid assessed as compound remaining measured after 120 mins by LC-MS/MS; assay type: ADME; conditions: read-out: Stability
[11] = Selectivity ratio of IC50 for human HCT-116 cells to IC50 for human MCF7 cells; assay type: functional
MCF7 [12] = assay: Anticancer activity against ERalpha positive human MCF7 cells assessed as cell growth inhibition incubated for 72 hrs by alamar blue assay; assay type: functional, cell-based; conditions: MCF7, 72 h
[13] = Volume of distribution at steady state in CD-1 mouse at 20 mg/kg, iv by LC-MS/MS analysis; assay type: ADME, organism-based; conditions: CD-1, mouse, in vivo, read-out: Vdss
[14] = Clearance in CD-1 mouse at 20 mg/kg, iv by LC-MS/MS analysis; assay type: ADME, organism-based; conditions: in vivo
HCT-116 [15] = assay: Anticancer activity against ERalpha negative human HCT-116 cells assessed as cell growth inhibition incubated for 168 hrs by alamar blue assay; assay type: functional, cell-based; conditions: HCT-116, 168 h
MDA-MB-436 [16] = assay: Anticancer activity against ERalpha negative human MDA-MB-436 cells assessed as cell growth inhibition incubated for 72 hrs by alamar blue assay; assay type: functional, cell-based; conditions: MDA-MB-436, 72 h
MCF7 [17] = assay: Anticancer activity against human MCF7 cells assessed as reduction in cell viability incubated for 24 hrs in presence of 10% CD-FBS and 17-beta-estradiol by alamar blue assay; assay type: functional, cell-based
[18] = AUC in CD-1 mouse at 20 mg/kg, iv by LC-MS/MS analysis; assay type: ADME, organism-based; set-up: dose 20 mg/kg, route iv; conditions: CD-1, mouse, in vivo, read-out: AUC
[19] = Toxicity in iv dosed Sprague-Dawley rat assessed as maximum tolerated dose administered as single dose; assay type: organism-based; conditions: in vivo
[20] = Toxicity in po dosed CD-1 mouse assessed as maximum tolerated dose administered as single dose; assay type: organism-based; conditions: in vivo
[21] = MRT in CD-1 mouse at 20 mg/kg, iv by LC-MS/MS analysis; assay type: ADME, organism-based; conditions: CD-1, mouse, in vivo, read-out: MRT
MCF7 [22] = assay: Anticancer activity against human MCF7 cells assessed as reduction in cell viability incubated for 24 hrs in presence of 10% CD-FBS by alamar blue assay; assay type: functional, cell-based
T47D [23] = assay: Anticancer activity against ERalpha positive human T47D cells assessed as cell growth inhibition incubated for 24 hrs by alamar blue assay; assay type: functional, cell-based
MDA-MB-436 [24] = assay: Anticancer activity against ERalpha negative human MDA-MB-436 cells assessed as cell growth inhibition incubated for 24 hrs by alamar blue assay; assay type: functional, cell-based; conditions: MDA-MB-436, 24 h
[25] = Toxicity in iv dosed CD-1 mouse assessed as maximum tolerated dose administered as single dose; assay type: organism-based; conditions: in vivo
[26] = Selectivity ratio of IC50 for human MDA-MB-436 cells to IC50 for human MCF7 cells; assay type: functional
MDA-MB-231 [27] = assay: Anticancer activity against ERalpha negative human MDA-MB-231 cells assessed as cell growth inhibition incubated for 168 hrs by alamar blue assay; assay type: functional, cell-based; conditions: MDA-MB-231, 168 h
[28] = Oral bioavailability in CD-1 mouse at 40 mg/kg by LC-MS/MS analysis; assay type: ADME, organism-based; conditions: in vivo
T47D [29] = assay: Anticancer activity against human T47D cells harbouring ERalphaD538G mutant assessed as cell growth inhibition incubated for 24 hrs by alamar blue assay; assay type: functional, cell-based
MCF7 [30] = assay: Antitumor activity against human MCF7 cells xenografted in athymic nude mouse assessed as reduction in tumor growth at 5 mg/kg, iv administered once a week for three doses administered for 14 days; assay type: functional, organism-based; conditions: time 14.0 day
[31] = Cmax in CD-1 mouse at 20 mg/kg, iv by LC-MS/MS analysis; assay type: ADME, organism-based; set-up: dose 20 mg/kg, route iv; conditions: CD-1, mouse, in vivo, read-out: Cmax
[32] = Stability of the compound in simulated gastric fluid assessed as half life measured upto 120 mins by LC-MS/MS analysis; assay type: ADME
T47D [33] = assay: Anticancer activity against human T47D cells harbouring ERalphaY537S mutant assessed as cell growth inhibition incubated for 24 hrs by alamar blue assay; assay type: functional, cell-based
[34] = Toxicity in athymic nude mouse xenografted with human MCF7 cells assessed as change in body weight at 5 mg/kg, iv administered once a week for three doses administered for 14 days; assay type: organism-based; conditions: in vivo, 336 h, time 14 day
[35] = Half life in CD-1 mouse at 20 mg/kg, iv by LC-MS/MS analysis; assay type: ADME, organism-based; conditions: CD-1, mouse, in vivo

Question: What does the source list for `O=C1Nc2c(C(F)(F)F)cccc2[C@@]1(c1ccc(O)cc1)N1CCC(F)(F)C1`?
Answer: IC50 (MDA-MB-231 [1]): 32 µM; IC50 (MDA-MB-231 [2]): 51 µM; Ratio IC50 [3]: 1500; IC50 (MCF7 [4]): 0.017 µM; Ratio IC50 [5]: 1400; IC50 (HCT-116 [6]): 20 µM; IC50 (HT-29 [7]): 30 µM; IC50 (HT-29 [8]): 35 µM; IC50 (HCT-116 [9]): 45 µM; remaining at 2 h [10]: 20%; Ratio IC50 [11]: 900

Question: For `O=C1Nc2c(C(F)(F)F)cccc2[C@@]1(c1ccc(O)cc1)C1CCC(F)(F)CC1`, which IC50 (MCF7 [4]) is on record?
Answer: > 1 µM

Question: With `O=C1Nc2c(C(F)(F)F)cccc2C1(c1ccc(OC(F)(F)F)cc1)c1cc(F)c(O)c(F)c1` (stereo not drawn) as the compound, how does the IC50 (MCF7 [4]) read?
Answer: > 1 µM

Question: For `O=C1Nc2c(C(F)(F)F)cccc2C1(c1ccc(O)cc1)N1CCC(F)(F)CC1` (stereo not drawn), which IC50 (MCF7 [4]) is on record?
Answer: 0.035 µM

Question: Which IC50 (MDA-MB-231 [1]) does the source give for `O=C1Nc2c(C(F)(F)F)cccc2[C@@]1(c1ccc(O)cc1)N1CC(F)(F)C(F)(F)C1` here?
Answer: 14 µM

Question: And the IC50 (MDA-MB-231 [2])?
Answer: 22 µM

Question: And the IC50 (MCF7 [12])?
Answer: 0.004 µM

Question: What about the “Ratio IC50” value [3] of the same compound?
Answer: 3500

Question: And the IC50 (MCF7 [4])?
Answer: 0.005 µM

Question: What about the “Ratio IC50” value [5] of the same compound?
Answer: 3800

Question: And the IC50 (HCT-116 [6])?
Answer: 15 µM

Question: And the IC50 (HT-29 [7])?
Answer: 15 µM

Question: And the IC50 (HT-29 [8])?
Answer: 25 µM

Question: And the IC50 (HCT-116 [9])?
Answer: 24 µM

Question: What about the remaining at 2 h [10] of the same compound?
Answer: 27%

Question: What about the “Ratio IC50” value [11] of the same compound?
Answer: 3800

Question: Which IC50 (MCF7 [4]) does the source give for `CC1CN(C2(c3ccc(O)cc3)C(=O)Nc3c(C(F)(F)F)cccc32)CCC1(F)F` (stereo not drawn) here?
Answer: 0.07 µM

Question: Which IC50 (MCF7 [12]) does the source give for `O=C1Nc2c(C(F)(F)F)cccc2[C@@]1(c1ccc(O)cc1)N1CC(F)(F)C1` here?
Answer: 0.117 µM

Question: For `O=C1Nc2c(C(F)(F)F)cccc2C1(c1ccc(O)cc1)N1CCOCC1` (stereo not drawn), which IC50 (MCF7 [4]) is on record?
Answer: > 1 µM

Question: For `O=C1Nc2c(C(F)(F)F)cccc2C1(c1ccc(O)cc1)N1CCCCCC1` (stereo not drawn), which IC50 (MCF7 [4]) is on record?
Answer: > 1 µM

Question: For `O=C1Nc2c(C(F)(F)F)cccc2C1(c1ccc(OC(F)(F)F)cc1)c1ccc(OC(F)(F)F)cc1`, which IC50 (MCF7 [4]) is on record?
Answer: > 1 µM

Question: With `Cc1cc(C2(c3ccc(OC(F)(F)F)cc3)C(=O)Nc3c(C(F)(F)F)cccc32)cc(C)c1O` (stereo not drawn) as the compound, how does the IC50 (MCF7 [4]) read?
Answer: > 1 µM

Question: Which IC50 (MDA-MB-231 [1]) does the source give for `O=C1Nc2c(C(F)(F)F)cccc2[C@]1(c1ccc(O)cc1)C1CCC(F)(F)CC1` here?
Answer: 55 µM

Question: And the Vd [13]?
Answer: 2.8 L/kg

Question: What about the IC50 (MDA-MB-231 [2]) of the same compound?
Answer: 55 µM

Question: And the IC50 (MCF7 [12])?
Answer: 0.017 µM

Question: And the clearance [14]?
Answer: 52 mL/min/kg

Question: What about the “Ratio IC50” value [3] of the same compound?
Answer: 1900

Question: And the IC50 (HCT-116 [15])?
Answer: 42 µM

Question: What about the IC50 (MDA-MB-436 [16]) of the same compound?
Answer: 55 µM

Question: What about the Activity (MCF7 [17]) of the same compound?
Answer: Active

Question: What about the AUC [18] of the same compound?
Answer: 6300 ng·h/mL

Question: And the MTD [19]?
Answer: > 50 mg/kg

Question: And the MTD [20]?
Answer: > 200 mg/kg

Question: And the MRT [21]?
Answer: 54 min

Question: And the Activity (MCF7 [22])?
Answer: Active

Question: And the IC50 (MCF7 [4])?
Answer: 0.017 µM

Question: And the IC50 (T47D [23])?
Answer: 0.016 µM

Question: And the “Ratio IC50” value [5]?
Answer: 1600

Question: And the IC50 (HCT-116 [6])?
Answer: 55 µM

Question: And the IC50 (HT-29 [7])?
Answer: 27 µM

Question: What about the IC50 (HT-29 [8]) of the same compound?
Answer: 33 µM

Question: What about the IC50 (MDA-MB-436 [24]) of the same compound?
Answer: 64 µM

Question: And the MTD [25]?
Answer: 95 mg/kg

Question: And the “Ratio IC50” value [26]?
Answer: 3200

Question: And the IC50 (HCT-116 [9])?
Answer: 55 µM

Question: What about the IC50 (MDA-MB-231 [27]) of the same compound?
Answer: 33 µM

Question: And the bioavailability [28]?
Answer: 6%

Question: What about the IC50 (T47D [29]) of the same compound?
Answer: 0.009 µM

Question: What about the Activity (MCF7 [30]) of the same compound?
Answer: Active

Question: And the Cmax [31]?
Answer: 14700 ng/mL

Question: What about the half-life [32] of the same compound?
Answer: 56 min

Question: What about the IC50 (T47D [33]) of the same compound?
Answer: 0.007 µM

Question: What about the remaining at 2 h [10] of the same compound?
Answer: 13%

Question: And the Activity [34]?
Answer: Non-Toxic

Question: What about the half-life [35] of the same compound?
Answer: 18 min

Question: And the “Ratio IC50” value [11]?
Answer: 3200

Question: With `O=C1Nc2c(C(F)(F)F)cccc2C1(c1ccc(OC(F)(F)F)cc1)c1ccc(O)c(F)c1` (stereo not drawn) as the compound, how does the IC50 (MCF7 [4]) read?
Answer: 0.033 µM
